# Values joined by “and” are separate entries in the source; they are usually repeats but may differ in a detail not shown here. Equal entries are not always repeated.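 Test compounds were applied to cells in 96-well plates for 48 hours at 5 doses. Abbreviation: GI50, concentration required for 50% inhibition of growth. TGI: total growth inhibition.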
# Tested on: PC-3 prostate
# Test: growth of human tumour cells (NCI), 48 h
SMILES,GI50,TGI
COC(=O)[C@]12CC[C@@H](C)[C@H](C)[C@@H]1C1=CC[C@@H]3[C@@]4(C)C/C(=N\O)[C@H](O)[C@@]5(C)COC(=C45)C[C@@]3(C)[C@]1(C)CC2,2340 nM,6.51 µM
Oc1c(CN2CCC(N3CCCCC3)CC2)cc(Cc2cc(CN3CCC(N4CCCCC4)CC3)c(O)c3ncccc23)c2cccnc12,1280 nM,15.9 µM
Cn1c2ccccc2c2c(-c3ccccc3)[n+]3ccncc3nc21,> 100000 nM,> 100 µM
COc1ccc(-c2cnnc3c(-c4cccc(C(F)(F)F)c4)cnn23)cc1,6220 nM,> 100 µM
C=CCCCCCCCCC(=O)[O][Sn]([CH2]CCC)([CH2]CCC)[CH2]CCC,187 nM,0.409 µM
CC/C(=C(/c1ccc(O)cc1)c1ccc(OCCNC)cc1)c1ccccc1,1950 nM,5.45 µM
O=C(/C(Br)=C/c1ccccc1)c1ccccc1,3110 nM,10.5 µM
C=C1C(=O)O[C@H]2[C@H]1CC/C(Cn1cc(-c3ccc(OC)cc3)nn1)=C\CC[C@@]1(C)O[C@@H]21,9350 nM,22.2 µM
CCOc1cc2c(Cl)ncnc2c(OCC)c1OCC,3200 nM,11.4 µM
Oc1ccc2ccccc2c1N=Nc1nccs1,1130 nM,> 66.1 µM
CC(=O)OCCN1c2ccccc2Sc2cnccc21,,> 10 µM
CC(C)(CC(=O)Nc1ccccc1)C(=O)O,,> 100 µM
COc1ccc(/C(COc2c(-c3ccccc3)oc3ccccc3c2=O)=N\O)cc1,13400 nM,35.5 µM
Cn1c(=O)c2[nH]c(SCc3ccccn3)nc2n(C)c1=S,,> 100 µM
COc1cc2c(c(O)c1Br)C(=O)c1c(O)cc(C[C@H](C)O)cc1[C@H]2[C@H]1c2cc(C[C@H](C)O)cc(O)c2C(=O)c2c1cc(OC)c(Br)c2O,2850 nM and 4400 nM,67.5 µM and > 100 µM
COc1ccc(-c2cc(=O)c3ccc(O)cc3o2)cc1OC,,> 100 µM
CC[C@]1(O)C[C@@H]2CN(CCc3c([nH]c4ccccc34)[C@@](C(=O)OC)(c3cc4c(cc3OC)N(C)[C@H]3[C@@](O)(C(=O)OC)[C@H](OC(C)=O)[C@]5(CC)C=CCN6CC[C@]43[C@@H]65)C2)C1,< 10 nM,22.2 µM
N#CSc1c[nH]c2cccc(/C=C/C(=O)/C=C(/C=C/c3cccc4[nH]cc(SC#N)c34)OB(F)F)c12,419 nM,4.19 µM
COc1cc([N+](=O)[O-])cc2c3c(n(C)c12)[C@@]1(C)CCC2c4ccc(OCc5ccccc5)cc4CCC2C1C3 (stereo not given in full),> 100000 nM,> 100 µM
C=CC(=O)N1CC2(CCN(c3nc(OC4CCN(CCCOC)CC4)nc4c(OCC(F)(F)F)c(-c5c(C)ccc6[nH]ncc56)c(C5CC5)cc34)CC2)C1,2610 nM,9.86 µM
FC(F)(F)c1cccc(Nc2nccc(-c3cnn4nc(-c5ccccc5)ccc34)n2)c1,8480 nM,> 20.8 µM
CC[C@@H]1C(=O)N(C)c2cnc(Nc3ccc(C(=O)NC4CCN(C)CC4)cc3OC)nc2N1C1CCCC1,4.54 nM and < 10 nM,> 10 µM and 19.1 µM
C=C1C(=O)O[C@H]2[C@H]1CC/C(COC(=O)c1ccc3ccccc3c1)=C\CC[C@@]1(C)O[C@@H]21,1240 nM,2.79 µM
CC[CH2][Sn]([CH2]CC)([O]C(=O)c1cccnc1SC)[O][Sn]([CH2]CC)([CH2]CC)[O]C(=O)c1cccnc1SC,2300 nM,6.48 µM
COC1/C=C\C=C(/C)C(=O)NC2=CC(=O)C(=O)C(=C2O)CC(C)CC(OC)C(O)C(C)/C=C(\C)C1OC(N)=O (stereo not given),,> 37.7 µM

# Tested on: SK-MEL-28 melanoma
# Test: growth of human tumour cells (NCI), 48 h
SMILES,GI50,TGI
CN1CCN(C(=O)OCc2nc3c(N4CCOCC4)nc(Cl)nc3n2C)CC1,1580 nM,3.11 µM
COC(=O)[C@]12CC[C@@H](C)[C@H](C)[C@@H]1C1=CC[C@@H]3[C@@]4(C)C/C(=N\O)[C@H](O)[C@@]5(C)COC(=C45)C[C@@]3(C)[C@]1(C)CC2,15000 nM,33.7 µM
Oc1c(CN2CCC(N3CCCCC3)CC2)cc(Cc2cc(CN3CCC(N4CCCCC4)CC3)c(O)c3ncccc23)c2cccnc12,1240 nM,5.77 µM
Cn1c2ccccc2c2c(-c3ccccc3)[n+]3ccncc3nc21,> 100000 nM,> 100 µM
COc1ccc(-c2cnnc3c(-c4cccc(C(F)(F)F)c4)cnn23)cc1,3140 nM,> 100 µM
C=CCCCCCCCCC(=O)[O][Sn]([CH2]CCC)([CH2]CCC)[CH2]CCC,157 nM,0.296 µM
CC/C(=C(/c1ccc(O)cc1)c1ccc(OCCNC)cc1)c1ccccc1,1710 nM,3.21 µM
O=C(/C(Br)=C/c1ccccc1)c1ccccc1,5310 nM,23.1 µM
C=C1C(=O)O[C@H]2[C@H]1CC/C(Cn1cc(-c3ccc(OC)cc3)nn1)=C\CC[C@@]1(C)O[C@@H]21,822 nM,2.41 µM
CCOc1cc2c(Cl)ncnc2c(OCC)c1OCC,2150 nM,5.26 µM
Oc1ccc2ccccc2c1N=Nc1nccs1,2550 nM,18.6 µM
CC(=O)OCCN1c2ccccc2Sc2cnccc21,,> 10 µM
CC(C)(CC(=O)Nc1ccccc1)C(=O)O,,> 100 µM
COc1ccc(/C(COc2c(-c3ccccc3)oc3ccccc3c2=O)=N\O)cc1,15000 nM,> 50 µM
Cn1c(=O)c2[nH]c(SCc3ccccn3)nc2n(C)c1=S,,> 100 µM
COc1cc2c(c(O)c1Br)C(=O)c1c(O)cc(C[C@H](C)O)cc1[C@H]2[C@H]1c2cc(C[C@H](C)O)cc(O)c2C(=O)c2c1cc(OC)c(Br)c2O,4540 nM and 5600 nM,32.9 µM and > 100 µM
COc1ccc(-c2cc(=O)c3ccc(O)cc3o2)cc1OC,,> 100 µM
CC[C@]1(O)C[C@@H]2CN(CCc3c([nH]c4ccccc34)[C@@](C(=O)OC)(c3cc4c(cc3OC)N(C)[C@H]3[C@@](O)(C(=O)OC)[C@H](OC(C)=O)[C@]5(CC)C=CCN6CC[C@]43[C@@H]65)C2)C1,11100 nM,28 µM
N#CSc1c[nH]c2cccc(/C=C/C(=O)/C=C(/C=C/c3cccc4[nH]cc(SC#N)c34)OB(F)F)c12,342 nM,1.49 µM
COc1cc([N+](=O)[O-])cc2c3c(n(C)c12)[C@@]1(C)CCC2c4ccc(OCc5ccccc5)cc4CCC2C1C3 (stereo not given in full),> 100000 nM,> 100 µM
C=CC(=O)N1CC2(CCN(c3nc(OC4CCN(CCCOC)CC4)nc4c(OCC(F)(F)F)c(-c5c(C)ccc6[nH]ncc56)c(C5CC5)cc34)CC2)C1,1750 nM,3.37 µM
FC(F)(F)c1cccc(Nc2nccc(-c3cnn4nc(-c5ccccc5)ccc34)n2)c1,8110 nM,> 20.4 µM
CC[C@@H]1C(=O)N(C)c2cnc(Nc3ccc(C(=O)NC4CCN(C)CC4)cc3OC)nc2N1C1CCCC1,,3.32 µM and 2.59 µM
C=C1C(=O)O[C@H]2[C@H]1CC/C(COC(=O)c1ccc3ccccc3c1)=C\CC[C@@]1(C)O[C@@H]21,1470 nM,2.96 µM
CC[CH2][Sn]([CH2]CC)([O]C(=O)c1cccnc1SC)[O][Sn]([CH2]CC)([CH2]CC)[O]C(=O)c1cccnc1SC,296 nM,0.711 µM
COC1/C=C\C=C(/C)C(=O)NC2=CC(=O)C(=O)C(=C2O)CC(C)CC(OC)C(O)C(C)/C=C(\C)C1OC(N)=O (stereo not given),,> 49.3 µM

# Tested on: SN12C renal
# Test: growth of human tumour cells (NCI), 48 h
SMILES,GI50 [nM],TGI [µM]
CN1CCN(C(=O)OCc2nc3c(N4CCOCC4)nc(Cl)nc3n2C)CC1,1450,3.06
COC(=O)[C@]12CC[C@@H](C)[C@H](C)[C@@H]1C1=CC[C@@H]3[C@@]4(C)C/C(=N\O)[C@H](O)[C@@]5(C)COC(=C45)C[C@@]3(C)[C@]1(C)CC2,5790,21.2
Oc1c(CN2CCC(N3CCCCC3)CC2)cc(Cc2cc(CN3CCC(N4CCCCC4)CC3)c(O)c3ncccc23)c2cccnc12,1620,16
Cn1c2ccccc2c2c(-c3ccccc3)[n+]3ccncc3nc21,48200,> 100
COc1ccc(-c2cnnc3c(-c4cccc(C(F)(F)F)c4)cnn23)cc1,3070,> 100
C=CCCCCCCCCC(=O)[O][Sn]([CH2]CCC)([CH2]CCC)[CH2]CCC,153,0.331
CC/C(=C(/c1ccc(O)cc1)c1ccc(OCCNC)cc1)c1ccccc1,2190,5.78
O=C(/C(Br)=C/c1ccccc1)c1ccccc1,2340,5.85
C=C1C(=O)O[C@H]2[C@H]1CC/C(Cn1cc(-c3ccc(OC)cc3)nn1)=C\CC[C@@]1(C)O[C@@H]21,1960,5.27
CCOc1cc2c(Cl)ncnc2c(OCC)c1OCC,12000,26.2
Oc1ccc2ccccc2c1N=Nc1nccs1,1770,44
CC(=O)OCCN1c2ccccc2Sc2cnccc21,,> 10
CC(C)(CC(=O)Nc1ccccc1)C(=O)O,,> 100

# — PubChem BioAssay (NCI)
